Measurements from patent US5294611A, “Angiotensin II receptor blocking 2,3,6 substituted quinazolinones” (American Cyanamid Company, priority 1993, dated 1994).
Where two headings read alike, the source gives them in different places.

Tested on: Angiotensin II (AII) vasopressor response
Test: AII Challenge: antagonism of angiotensin II vasopressor response in conscious spontaneously hypertensive rats
Type: in vivo, rat (male okamoto-Aoki SHR)
Details: for inhibition in vivo at 3 mg/kg: Rattus norvegicus, read-out: Inhibition; for inhibition in vivo at 3 mg/kg / Average Change: SHR n=2; for Change: single SHR
Outline: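 Read-out is the systolic pressure increase (mmHg) to i.v. angiotensin II, 0.05 and 0.1 ug/kg, compared pre- and post-dose in restrained, conscious spontaneously hypertensive male rats. Compounds administered orally, i.p. or i.v.; arterial cannula inserted under local anaesthesia.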

[1] = 3 mg/kg I.V., AII 0.05 mcg/kg IV, 30 min post dose
[2] = 3 mg/kg I.V., AII 0.05 mcg/kg IV, 60 min post dose
[3] = 3 mg/kg I.V., AII 0.1 mcg/kg IV, 300 min post dose
[4] = 3 mg/kg P.O., AII 0.05 mcg/kg IV, 30 min post dose
[5] = 3 mg/kg P.O., AII 0.1 mcg/kg IV, 30 min post dose

CCCCc1nc2ccc([C@H]3[C@@H]4C(=O)OC[C@@H]4ON3Cc3ccccc3)cc2c(=O)n1Cc1ccc(-c2ccccc2-c2nnn[nH]2)cc1 (relative stereo) [Example 57]
inhibition in vivo at 3 mg/kg (iv, 0.5 h, 3 mg/kg I.V., AII 0.05 mcg/kg IV, 30 min post dose): 100%
inhibition in vivo at 3 mg/kg (iv, 0.5 h, 3 mg/kg I.V., AII 0.1 mcg/kg IV, 30 min post dose): 99%
inhibition in vivo at 3 mg/kg (iv, 1 h, 3 mg/kg I.V., AII 0.05 mcg/kg IV, 60 min post dose): 100%
inhibition in vivo at 3 mg/kg (iv, 1 h, 3 mg/kg I.V., AII 0.1 mcg/kg IV, 60 min post dose): 88%
inhibition in vivo at 3 mg/kg (iv, 2 h, 3 mg/kg I.V., AII 0.05 mcg/kg IV, 120 min post dose): 90%
inhibition in vivo at 3 mg/kg (iv, 2 h, 3 mg/kg I.V., AII 0.1 mcg/kg IV, 120 min post dose): 81%
inhibition in vivo at 3 mg/kg (iv, 3 h, 3 mg/kg I.V., AII 0.05 mcg/kg IV, 180 min post dose): 61%
inhibition in vivo at 3 mg/kg (iv, 3 h, 3 mg/kg I.V., AII 0.1 mcg/kg IV, 180 min post dose): 75%
inhibition in vivo at 3 mg/kg (iv, 4 h, 3 mg/kg I.V., AII 0.05 mcg/kg IV, 240 min post dose): 77%
inhibition in vivo at 3 mg/kg (iv, 4 h, 3 mg/kg I.V., AII 0.1 mcg/kg IV, 240 min post dose): 56%
inhibition in vivo at 3 mg/kg (iv, 5 h, 3 mg/kg I.V., AII 0.05 mcg/kg IV, 300 min post dose): 71%
inhibition in vivo at 3 mg/kg (iv, 5 h, 3 mg/kg I.V., AII 0.1 mcg/kg IV, 300 min post dose): 38%
inhibition in vivo at 3 mg/kg (iv, […], 3 mg/kg I.V., AII 0.05 mcg/kg IV, 90 min post dose): 93%
inhibition in vivo at 3 mg/kg (iv, […], 3 mg/kg I.V., AII 0.1 mcg/kg IV, 90 min post dose): 75%
inhibition in vivo at 3 mg/kg (po, 0.5 h, 3 mg/kg P.O., AII 0.05 mcg/kg IV, 30 min post dose): 34%
inhibition in vivo at 3 mg/kg (po, 0.5 h, 3 mg/kg P.O., AII 0.1 mcg/kg IV, 30 min post dose): 37%
inhibition in vivo at 3 mg/kg (po, 1 h, 3 mg/kg P.O., AII 0.05 mcg/kg IV, 60 min post dose): 67%
inhibition in vivo at 3 mg/kg (po, 1 h, 3 mg/kg P.O., AII 0.1 mcg/kg IV, 60 min post dose): 53%
inhibition in vivo at 3 mg/kg (po, 2 h, 3 mg/kg P.O., AII 0.05 mcg/kg IV, 120 min post dose): 41%
inhibition in vivo at 3 mg/kg (po, 2 h, 3 mg/kg P.O., AII 0.1 mcg/kg IV, 120 min post dose): 63%
inhibition in vivo at 3 mg/kg (po, 3 h, 3 mg/kg P.O., AII 0.05 mcg/kg IV, 180 min post dose): 11%
inhibition in vivo at 3 mg/kg (po, 3 h, 3 mg/kg P.O., AII 0.1 mcg/kg IV, 180 min post dose): 53%
inhibition in vivo at 3 mg/kg (po, […], 3 mg/kg P.O., AII 0.05 mcg/kg IV, 90 min post dose): 47%
inhibition in vivo at 3 mg/kg (po, […], 3 mg/kg P.O., AII 0.1 mcg/kg IV, 90 min post dose): 47%
Average Change [1]: 0 mmHg
Average Change [2]: 0 mmHg
Average Change (3 mg/kg I.V., AII 0.05 mcg/kg IV, 90 min post dose): 2.5 mmHg
Average Change (3 mg/kg I.V., AII 0.05 mcg/kg IV, 120 min post dose): 3.5 mmHg
Average Change (3 mg/kg I.V., AII 0.05 mcg/kg IV, 180 min post dose): 13.5 mmHg
Average Change (3 mg/kg I.V., AII 0.05 mcg/kg IV, 240 min post dose): 8 mmHg
Average Change (3 mg/kg I.V., AII 0.05 mcg/kg IV, 300 min post dose): 10 mmHg
Average Change (3 mg/kg I.V., AII 0.1 mcg/kg IV, 30 min post dose): 0.5 mmHg
Average Change (3 mg/kg I.V., AII 0.1 mcg/kg IV, 60 min post dose): 5 mmHg
Average Change (3 mg/kg I.V., AII 0.1 mcg/kg IV, 90 min post dose): 10 mmHg
Average Change (3 mg/kg I.V., AII 0.1 mcg/kg IV, 120 min post dose): 7.5 mmHg
Average Change (3 mg/kg I.V., AII 0.1 mcg/kg IV, 180 min post dose): 10 mmHg
Average Change (3 mg/kg I.V., AII 0.1 mcg/kg IV, 240 min post dose): 17.5 mmHg
Average Change [3]: 25 mmHg
Average Change [4]: 25 mmHg
Average Change (3 mg/kg P.O., AII 0.05 mcg/kg IV, 60 min post dose): 12.5 mmHg
Average Change (3 mg/kg P.O., AII 0.05 mcg/kg IV, 90 min post dose): 20 mmHg
Average Change (3 mg/kg P.O., AII 0.05 mcg/kg IV, 120 min post dose): 22.5 mmHg
Average Change (3 mg/kg P.O., AII 0.05 mcg/kg IV, 180 min post dose): 34 mmHg
Average Change [5]: 30 mmHg
Average Change (3 mg/kg P.O., AII 0.1 mcg/kg IV, 60 min post dose): 22.5 mmHg
Average Change (3 mg/kg P.O., AII 0.1 mcg/kg IV, 90 min post dose): 25 mmHg
Average Change (3 mg/kg P.O., AII 0.1 mcg/kg IV, 120 min post dose): 17.5 mmHg
Average Change (3 mg/kg P.O., AII 0.1 mcg/kg IV, 180 min post dose): 22.5 mmHg
Change [1]: 0 mmHg
Change [2]: 0 mmHg
Change [3]: 25 mmHg
Change [4]: 25 mmHg
Change [5]: 30 mmHg
